Our source for the surviving fraction values is the supplement of paper PMC6045584.

± gives the standard deviation of the averaged measurements.

Compound in assay [1]: COc1ccc(-c2cc3c(C)nc(N)nc3n([C@H]3CC[C@H](OCCO)CC3)c2=O)cn1
The assay can be described thus: surviving fraction relative to DMSO-only wells; higher = less growth inhibition. The note with it: exposure time: 5 days. In a few lines: (§1)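 Inhibitors at 0.5, 1, 5, 10, 50, 100, 500 and 1000 nM were applied continuously for five days to tumour cell lines seeded in log phase at 250–500 cells per well in 384-well plates 24 hours earlier. Viability was measured by CellTiter-Glo luminescence and expressed as surviving fraction relative to the median of DMSO-only wells. Luminescence was taken after 10 minutes at room temperature.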

Compound in assay [2]: CCc1cc(Nc2nccc(-c3c(-c4ccc(OC)c(C(=O)Nc5c(F)cccc5F)c4)nc4ccccn34)n2)c(OC)cc1N1CCC(N2CCN(S(C)(=O)=O)CC2)CC1
Described as above. The note with it: exposure time: 5 days. The procedure, abridged:
as §1

For MG63 BONE, the surviving fraction was 0.984 ± 0.0072 in assay [1] (0.5 nM); 0.97 ± 0.04 in assay [1] (1 nM); 0.9233 ± 0.009 in assay [1] (5 nM); 0.833 ± 0.035 in assay [1] (10 nM); 0.539 ± 0.021 in assay [1] (50 nM); 0.348 ± 0.011 in assay [1] (100 nM). The surviving fraction in assay [1] (500 nM) is 0.137 ± 0.0046; in assay [1] (1000 nM), 0.0953 ± 0.0011; in assay [2] (0.5 nM) it was 0.953 ± 0.012; in assay [2] (1 nM), 0.987 ± 0.028; in assay [2] (5 nM), 1.005 ± 0.01; in assay [2] (10 nM) it was 1.06 ± 0.026. The surviving fraction in assay [2] (50 nM) turned out to be 0.968 ± 0.034; in assay [2] (100 nM), 1.01 ± 0.014; in assay [2] (500 nM), 0.956 ± 0.029; in assay [2] (1000 nM), 0.976 ± 0.047.

On to HOSMNG BONE, for which the surviving fraction amounted to 1.03 ± 0.058 in assay [1] (0.5 nM); 1.01 ± 0.087 in assay [1] (1 nM); 1.04 ± 0.037 in assay [1] (5 nM); 0.947 ± 0.034 in assay [1] (10 nM); 0.944 ± 0.082 in assay [1] (50 nM); 0.81 ± 0.033 in assay [1] (100 nM). Besides, the surviving fraction in assay [1] (500 nM) stood at 0.348 ± 0.0079; in assay [1] (1000 nM), 0.186 ± 0.0096; in assay [2] (0.5 nM), 0.956 ± 0.057; in assay [2] (1 nM) it was 0.9987 ± 0.0055; in assay [2] (5 nM), 0.989 ± 0.024; in assay [2] (10 nM), 1.02 ± 0.086. Further, the surviving fraction in assay [2] (50 nM) came out at 1 ± 0.051; in assay [2] (100 nM), 1.05 ± 0.087; in assay [2] (500 nM), 1.05 ± 0.061; in assay [2] (1000 nM), 1.05 ± 0.057.

Take C33A CERVIX: the surviving fraction was found to be 0.778 ± 0.031 in assay [1] (0.5 nM); 0.943 ± 0.09 in assay [1] (1 nM); 0.789 ± 0.075 in assay [1] (5 nM); 0.923 ± 0.073 in assay [1] (10 nM); 0.614 ± 0.043 in assay [1] (50 nM); 0.482 ± 0.012 in assay [1] (100 nM). The surviving fraction in assay [1] (500 nM) is 0.156 ± 0.024; in assay [1] (1000 nM), 0.101 ± 0.018; in assay [2] (0.5 nM), 0.755 ± 0.047; in assay [2] (1 nM), 0.874 ± 0.086; in assay [2] (5 nM), 1 ± 0.057; in assay [2] (10 nM), 0.892 ± 0.11. The surviving fraction in assay [2] (50 nM) was 1.01 ± 0.11; in assay [2] (100 nM) it was 0.952 ± 0.031; in assay [2] (500 nM) it was 0.832 ± 0.062; in assay [2] (1000 nM), 0.793 ± 0.051.

In the case of BT20 BREAST, the surviving fraction is 1.13 ± 0.1 in assay [1] (0.5 nM); 1.11 ± 0.097 in assay [1] (1 nM); 1.12 ± 0.019 in assay [1] (5 nM); 1.09 ± 0.063 in assay [1] (10 nM); 1 ± 0.048 in assay [1] (50 nM); 0.72 ± 0.037 in assay [1] (100 nM). For the same test system, the surviving fraction was found to be 0.216 ± 0.004 in assay [1] (500 nM); 0.141 ± 0.021 in assay [1] (1000 nM); 1.06 ± 0.11 in assay [2] (0.5 nM); 1.01 ± 0.086 in assay [2] (1 nM); 1.09 ± 0.018 in assay [2] (5 nM); 1.13 ± 0.14 in assay [2] (10 nM). In addition, the surviving fraction in assay [2] (50 nM) was found to be 0.932 ± 0.068; in assay [2] (100 nM) it was 0.941 ± 0.036; in assay [2] (500 nM), 0.825 ± 0.074; in assay [2] (1000 nM), 0.707 ± 0.029.

Turning to MDAMB231 BREAST, the surviving fraction is 0.98 ± 0.011 in assay [1] (0.5 nM); 0.985 ± 0.021 in assay [1] (1 nM); 0.949 ± 0.016 in assay [1] (5 nM); 0.902 ± 0.018 in assay [1] (10 nM); 0.645 ± 0.0077 in assay [1] (50 nM); 0.495 ± 0.013 in assay [1] (100 nM). For the same test system, the surviving fraction in assay [1] (500 nM) turned out to be 0.182 ± 0.0094; in assay [1] (1000 nM), 0.145 ± 0.0081; in assay [2] (0.5 nM), 0.973 ± 0.025; in assay [2] (1 nM), 1 ± 0.03; in assay [2] (5 nM) it was 1.01 ± 0.033; in assay [2] (10 nM) it was 1.03 ± 0.017. For the same test system, the surviving fraction turned out to be 0.962 ± 0.024 in assay [2] (50 nM), 1 ± 0.019 in assay [2] (100 nM), 0.906 ± 0.022 in assay [2] (500 nM) and 0.875 ± 0.018 in assay [2] (1000 nM).
